Measured values taken from ChEMBL document CHEMBL1155632, “Sesquiterpenes from the basidiomycete Omphalotus illudens” (J Nat Prod, 2000).
Calls of active or inactive are those of the source. The calls are words filed in the database; no cut-off is given here.

Legend:
Bacillus subtilis = test: Antibacterial activity against Bacillus subtilis ATCC 6633 at 10 ug/disk; assay type: functional, organism-based
Escherichia coli = test: Genotoxicity against Escherichia coli PQ37 at 50 ug/disk; assay type: toxicity, organism-based
Candida albicans = test: Antifungal activity against Candida albicans ATCC 32354; assay type: functional, organism-based
Staphylococcus aureus = test: Antibacterial activity against Staphylococcus aureus ATCC 29213; assay type: functional, organism-based
Pseudomonas aeruginosa = test: Antibacterial activity against Pseudomonas aeruginosa ATCC 27853; assay type: functional, organism-based

C/C(C=O)=C1\[C@@H](O)C[C@]1(C)[C@H]1CC(C)(C)C[C@@H]1O [ILLUDOSIN]
Activity (Bacillus subtilis): Active | Activity (Escherichia coli): Active | Activity (Candida albicans): inactive | Activity (Staphylococcus aureus): inactive | Activity (Pseudomonas aeruginosa): inactive

C/C(CO)=C1\[C@@H](O)C[C@]1(C)[C@H]1CC(C)(C)C[C@@H]1O
Activity (Bacillus subtilis): inactive | Activity (Escherichia coli): Not Active | Activity (Candida albicans): inactive | Activity (Staphylococcus aureus): inactive | Activity (Pseudomonas aeruginosa): inactive

C/C(C=O)=C1\C(=O)C[C@]1(C)[C@H]1CC(C)(C)CC1=O
Activity (Bacillus subtilis): inactive | Activity (Escherichia coli): Not Active | Activity (Candida albicans): inactive | Activity (Staphylococcus aureus): inactive | Activity (Pseudomonas aeruginosa): inactive

CC1(C)C[C@H]2[C@@H](CC[C@@]2(C)O)[C@]2(C)CC2[C@H]1OC(=O)c1cc([N+](=O)[O-])cc([N+](=O)[O-])c1 (stereo not given in full)
Activity (Bacillus subtilis): inactive | Activity (Escherichia coli): Not Active | Activity (Candida albicans): inactive | Activity (Staphylococcus aureus): inactive | Activity (Pseudomonas aeruginosa): inactive
